The target of assay [1] is Vasopressin V2 receptor (Rattus norvegicus) (UniProt Q00788). The assay can be described thus: Selectivity ratio of antidiuretic Vasopressin V2 receptor ED /[…] receptor ED. Particulars: Urine.
For assay [2] the target is unchanged. The assay can be described thus: Effective dose was determined for Vasopressin V2 receptor antagonistic activity in vivo in anesthetized rats. The assay is classed as functional, organism-based.
The target of assay [3] is Vasopressin V1 receptor (Rattus norvegicus) (UniProt P48974+P30560). The assay can be described thus: Effective dose was determined for Vasopressin V1 receptor antagonistic activity in vivo in anesthetized rats. It is filed as functional, organism-based.
The target of the next assay is Vasopressin V1 receptor (Rattus norvegicus, UniProt P48974+P30560). The assay can be described thus: pA2 value was determined for Vasopressin V1 receptor antagonistic activity in vivo in anesthetized rats. The assay is classed as functional, organism-based.

Vasopressin V1 receptor (Rattus norvegicus), sequence (P30560 whole entry, looked up): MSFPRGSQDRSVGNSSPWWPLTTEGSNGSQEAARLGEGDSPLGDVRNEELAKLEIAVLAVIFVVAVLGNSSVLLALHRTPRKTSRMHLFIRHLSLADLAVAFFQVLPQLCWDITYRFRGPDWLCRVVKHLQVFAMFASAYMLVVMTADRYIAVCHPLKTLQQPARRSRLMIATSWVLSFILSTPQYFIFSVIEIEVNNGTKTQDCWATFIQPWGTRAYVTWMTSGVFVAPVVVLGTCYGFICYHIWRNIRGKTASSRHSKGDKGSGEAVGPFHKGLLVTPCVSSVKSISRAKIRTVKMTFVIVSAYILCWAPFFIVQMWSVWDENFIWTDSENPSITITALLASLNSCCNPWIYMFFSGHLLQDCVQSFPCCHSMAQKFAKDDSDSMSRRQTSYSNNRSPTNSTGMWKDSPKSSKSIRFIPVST
Vasopressin V1 receptor (Rattus norvegicus), sequence (P48974 whole entry, looked up): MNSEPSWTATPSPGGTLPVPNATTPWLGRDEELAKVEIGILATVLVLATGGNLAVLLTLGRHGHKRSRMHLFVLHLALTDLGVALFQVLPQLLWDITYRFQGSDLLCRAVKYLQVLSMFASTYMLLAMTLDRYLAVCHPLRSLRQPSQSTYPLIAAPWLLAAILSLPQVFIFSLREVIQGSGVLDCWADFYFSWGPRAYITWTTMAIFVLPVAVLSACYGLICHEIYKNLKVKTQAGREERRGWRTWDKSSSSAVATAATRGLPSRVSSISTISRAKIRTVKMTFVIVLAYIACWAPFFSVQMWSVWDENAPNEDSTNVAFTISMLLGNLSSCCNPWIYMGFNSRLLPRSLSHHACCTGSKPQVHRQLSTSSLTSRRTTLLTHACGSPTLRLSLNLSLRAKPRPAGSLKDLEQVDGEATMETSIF
Vasopressin V2 receptor (Rattus norvegicus), sequence (Q00788 whole entry): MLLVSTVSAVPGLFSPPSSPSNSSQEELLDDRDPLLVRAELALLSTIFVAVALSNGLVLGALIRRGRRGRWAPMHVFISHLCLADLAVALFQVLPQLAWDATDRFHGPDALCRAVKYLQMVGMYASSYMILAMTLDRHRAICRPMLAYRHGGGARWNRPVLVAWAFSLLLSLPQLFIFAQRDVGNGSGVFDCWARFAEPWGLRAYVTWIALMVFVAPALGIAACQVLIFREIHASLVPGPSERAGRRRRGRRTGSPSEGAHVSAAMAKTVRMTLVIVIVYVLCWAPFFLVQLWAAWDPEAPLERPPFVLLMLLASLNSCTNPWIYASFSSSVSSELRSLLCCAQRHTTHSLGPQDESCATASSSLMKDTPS

`CCOc1ccc(C[C@@H](NC(=O)Cc2ccccc2)C(=O)N[C@@H](Cc2ccccc2)C(=O)N[C@H](C(=O)N[C@@H](CC(N)=O)C(=O)N[C@@H](CCCCN)C(=O)N2CCC[C@@H]2C(=O)N[C@@H](CCCN=C(N)N)C(=O)N[C@@H](CCCN=C(N)N)C(N)=O)C(C)C)cc1`: the Ratio in assay [1] stood at 41. Further, the values for the Effective dose in assay [2] and in assay [3] were 9.8 nM/kg and 0.24 nM/kg, respectively.
Consider `CCOc1ccc(C[C@@H](NC(=O)Cc2ccccc2)C(=O)N[C@@H](Cc2ccccc2)C(=O)N[C@H](C(=O)N[C@@H](CC(N)=O)C(=O)NCCCC(=O)N2CCC[C@@H]2C(=O)N[C@@H](CCCN=C(N)N)C(=O)N[C@@H](CCCN=C(N)N)C(N)=O)C(C)C)cc1`, for which the Ratio in assay [1] was 2.7. For the same compound, the Effective dose was 0.69 nM/kg in assay [2] and 0.26 nM/kg in assay [3].
With `CCOc1ccc(C[C@@H](NC(=O)CC(C)(C)C)C(=O)N[C@@H](Cc2ccccc2)C(=O)N[C@@H](CCC(N)=O)C(=O)N[C@@H](CC(N)=O)C(=O)N[C@@H](CCCCN)C(=O)N2CCC[C@@H]2C(=O)N[C@@H](CCCN=C(N)N)C(N)=O)cc1`, the Ratio in assay [1] is above 1500. Also, the Effective dose was above 410 nM/kg in assay [2] and 0.27 nM/kg in assay [3].
For the compound `CCOc1ccc(C[C@@H](NC(=O)Cc2ccccc2)C(=O)N[C@@H](Cc2ccccc2)C(=O)N[C@H](C(=O)N[C@@H](CC(N)=O)C(=O)N[C@@H](CCCN)C(=O)N2CCC[C@@H]2C(=O)N[C@@H](CCCN=C(N)N)C(=O)N[C@@H](CCCN=C(N)N)C(N)=O)C(C)C)cc1`, in assay [1], the Ratio came to 14. Also, the Effective dose worked out at 4 nM/kg in assay [2] and 0.29 nM/kg in assay [3].
In the case of `CCOc1ccc(C[C@@H](NC(=O)Cc2ccccc2)C(=O)N[C@@H](Cc2ccccc2)C(=O)N[C@@H](CCC(N)=O)C(=O)N[C@@H](CC(N)=O)C(=O)N[C@@H](CCCCN)C(=O)N2CCC[C@@H]2C(=O)N[C@@H](CCCN=C(N)N)C(N)=O)cc1`, the Ratio in assay [1] stood at 570. In addition, the values for the Effective dose in assay [2] and in assay [3] were 40 nM/kg and 0.07 nM/kg, respectively.
Taken in the same sequence, the figures for `COc1ccc(C[C@@H](NC(=O)Cc2ccccc2)C(=O)N[C@@H](Cc2ccccc2)C(=O)N[C@H](C(=O)N[C@@H](CC(N)=O)C(=O)N[C@@H](CCCCN)C(=O)N2CCC[C@@H]2C(=O)N[C@@H](CCCN=C(N)N)C(N)=O)C(C)C)cc1` were 35, 6 nM/kg and 0.17 nM/kg.
For `CCOc1ccc(C[C@@H](NC(=O)CC23CC4CC(CC(C4)C2)C3)C(=O)N[C@@H](Cc2ccccc2)C(=O)N[C@H](C(=O)N[C@@H](CC(N)=O)C(=O)N[C@@H](CCCN)C(=O)N2CCC[C@@H]2C(=O)N[C@@H](CCCN=C(N)N)C(N)=O)C(C)C)cc1`, the Ratio in assay [1] is 0.3. Moreover, the Effective dose in assay [2] came out at 1.1 nM/kg; in assay [3], 3.2 nM/kg.
Turning to `CC(C)[C@H](NC(=O)[C@H](Cc1ccccc1)NC(=O)[C@@H](Cc1ccc(O)cc1)NC(=O)Cc1ccccc1)C(=O)N[C@@H](CC(N)=O)C(=O)N[C@@H](CCCN=C(N)N)C(=O)N1CCC[C@H]1C(=O)N[C@@H](CCCN=C(N)N)C(=O)N[C@@H](CCCN=C(N)N)C(N)=O`, the pA2 at Vasopressin V1 receptor is 8.62.
Regarding `CC(C)[C@H](NC(=O)[C@H](Cc1ccccc1)NC(=O)[C@@H](Cc1ccc(O)cc1)NC(=O)Cc1ccccc1)C(=O)N[C@@H](CC(N)=O)C(=O)N[C@@H](CCCN=C(N)N)C(=O)N1CCC[C@@H]1C(=O)N[C@@H](CCCN=C(N)N)C(=O)N[C@@H](CCCN=C(N)N)C(N)=O`, the Effective dose in assay [3] came out at 0.16 nM/kg.
With `CC(C)[C@H](NC(=O)[C@H](Cc1ccccc1)NC(=O)[C@@H](Cc1ccc(O)cc1)NC(=O)CC12CC3CC(CC(C3)C1)C2)C(=O)N[C@@H](CC(N)=O)C(=O)N[C@@H](CCCN=C(N)N)C(=O)N1CCC[C@@H]1C(=O)N[C@@H](CCCN=C(N)N)C(=O)N[C@@H](CCCN=C(N)N)C(N)=O`, the Ratio in assay [1] is 4.3. In assay [2], this compound yielded an Effective dose of 1.7 nM/kg.
With `CCOc1ccc(C[C@H]2NC(=O)CC3(CCCCC3)SSC[C@H](C(=O)N3CCC[C@H]3C(=O)N[C@@H](CCCN=C(N)N)C(=O)NCC(N)=O)NC(=O)[C@@H](CC(N)=O)NC(=O)[C@H](C(C)C)NC(=O)[C@@H](Cc3ccccc3)NC2=O)cc1`, the Effective dose in assay [2] came to 1.1 nM/kg; in assay [3], 0.45 nM/kg. Besides, the pA2 on Vasopressin V1 receptor came out at 8.22.
